Where two headings read alike, the source gives them in different places.
Key:
[1] = Pharmacokinetic study in rats after single oral administration of GJK (UPLC-MS/MS of plasma); format: in vivo, Sprague–Dawley rats; conditions: single oral GJK 24 g/kg; for AUC(0-inf) / half-life / Cmax / MRT last / AUC(0-t) / Tmax: Sprague-Dawley; for AUC(0-inf) / half-life / Cmax / MRT last / AUC(0-t) / Tmax (time to reach peak concentration): rat plasma; for AUC(0-inf): n = 6, AUC0–t extrapolated to infinity; for AUC(0-inf) / AUC(0-t): mean ± S.D.; for half-life / Cmax / MRT last: n = 6, mean ± S.D.; for half-life: non-compartmental, read-out: T1/2z (terminal elimination half-life); for Cmax: read-out: Cmax (maximum plasma concentration); for MRT last: read-out: MRT0–t (mean residence time) (converted); for AUC(0-t): n = 6, zero to last sampling time; for Tmax: rat, po, 24 g/kg, read-out: Tmax (time to reach peak concentration) (converted); for Tmax / Tmax (time to reach peak concentration): n = 6, median (minimum, maximum)
Description: Chromatographic analyses were performed using an Agilent 1290 series UPLC system (Agilent Technologies, Santa Clara, CA, USA) equipped with a binary pump, an online degasser, an auto plate sampler, and a thermostatically controlled column compartment. The determination was carried out at 30 °C on a Waters Acquity UPLC C18 column (100 mm × 2.1 mm, […], Waters, Milford, MA, USA). The mobile phase consisted of 0.1% formic acid (A) and acetonitrile (B) using a gradient elution of 10%–34% B at 0–6 min, 34%–80% B at 6–10 min, 80% B at 10–12 min, 10% B at 12–15 min, and the re-equilibration time of gradient elution was 1 min. The sample injection volume was 5 µL, and the flow rate was 0.35 mL/min. The MS detection was performed using an Agilent 6460 Triple Quadrupole MS (Agilent Technologies) equipped with an electrospray ionization (ESI) source. […] Other parameters were as follows: drying gas (N2) flow rate, 11.0 L/min.
Plasma samples (50 µL) were thawed on ice and mixed with 200 µL of IS (20.0 ng/mL) via vortexing for 1 min. Then, the mixture was centrifuged at 13,500 rpm for 15 min to separate the precipitated protein at 4 °C. The supernatant was transferred into a clean Eppendorf tube and evaporated to dryness under a stream of nitrogen. The residues were reconstituted with 50 µL of water–methanol (50:50, v/v), vortexed and centrifuged at 13,500 rpm for 15 min. Then, the supernatants were injected into the UPLC–MS/MS for analysis.
Sprague–Dawley rats (200–250 g) were obtained from the Center of the Chinese University of Hong Kong and were kept in an environmentally controlled room (temperature: 25 ± 2 °C, humidity: 50% ± 5%, 12 h dark-light cycle) for at least 7 days before the experiments. Prior to the experiments, the animals were fasted for 24 h with water ad libitum. All protocols of animal experiments were approved in accordance with the regulations of the Experimental Animal Administration issued by the Macau University of Science and Technology.
The blood samples (100 µL) were individually collected from the caudal vein into heparinized tubes before administration, and 5, 10, 15, 30, 45, 60, 90, 120, 240, 360, 480, 720 and 1440 min after administration, and then immediately centrifuged at 4500 rpm for 15 min. […] The main PK parameters, including the maximum plasma concentration (Cmax), time to reach Cmax (Tmax), half-life time (T1/2), area under the curve (AUC 0–t and AUC 0–∞) and mean residence time (MRT), were calculated via the non-compartment model using the pharmacokinetic software, PK Solutions 2.0 (Summit Co., Montrose, CO, USA).

[2] = Stability of the analytes in rat plasma under different storage conditions (QC samples); format: in vitro ADME; conditions: n = 3; for Remaining (%) / remaining at 4 h / remaining at 360 h: rat plasma; for Remaining (%): freeze–thaw cycles (three); for remaining at 24 h / remaining at 4 h / remaining at 360 h: rat; for remaining at 24 h: extracted plasma QC samples in auto-sampler, 4 °C for 24 h; for remaining at 4 h: 25 °C for 4 h; for remaining at 360 h: at −70 °C for 15 days
Description: The stability of the seven compounds in rat plasma was assessed by analyzing the QC samples at three concentrations under different sample storage conditions and processing procedures. Short-term stability was assessed by analyzing the QC samples that were kept at room temperature for 4 h, which exceeded the routine sample preparation time. […] Freeze-thaw stability was investigated after three freeze (−40 °C) and thaw (room temperature) cycles. Post-preparation stability was assessed by analyzing the extracted QC samples that were kept in the auto-sampler at 4 °C for […]. All stability testing QC samples were evaluated using the calibration curve of the freshly prepared samples.

[3] = test system: NLRP3-dependent interleukin (IL)-1β production; design: method as in PMID 25210146; conditions: cited from earlier work
[4] = test system: toll-like receptor 4 (TLR4)/MD2 complex; design: method as in PMID 22422925; conditions: cited from earlier work
[5] = test system: NLRP3-activated ASC oligomerization; design: method as in PMID 25210146; conditions: cited from earlier work
[6] = test system: ages-induced mesangial cell damage; design: method as in PMID 23881455; conditions: in vitro; read-out: IC50 of antioxidative and anti-inflammatory activities; cited from earlier work
[7] = test system: phosphorylation of ERK, JNK, IKK stimulated by TNF-α; design: method as in PMID 23978582; conditions: cited from earlier work
[8] = plasma, medium QC concentration

Structure (SMILES)	AUC(0-inf) ([1]; in vivo) [ng·h/mL]	half-life ([1]; in vivo) [h]	Cmax ([1]; in vivo) [ng/mL]	MRT last ([1]; in vivo) [h]	AUC(0-t) ([1]; in vivo) [ng·h/mL]	Tmax ([1]; in vivo) [h]	Tmax (time to reach peak concentration) [1]	Remaining (%) ([2]; high QC concentration)	Remaining (%) ([2]; low QC concentration)	Remaining (%) ([2]; medium QC concentration)	remaining at 24 h ([2]; plasma, high QC concentration) [%]	remaining at 24 h ([2]; plasma, low QC concentration) [%]	remaining at 24 h [2, 8] [%]	remaining at 4 h ([2]; plasma, high QC concentration) [%]	remaining at 4 h ([2]; plasma, low QC concentration) [%]	remaining at 4 h [2, 8] [%]	remaining at 360 h ([2]; plasma, high QC concentration) [%]	remaining at 360 h ([2]; plasma, low QC concentration) [%]	remaining at 360 h [2, 8] [%]	Tmax ([1]; plasma) [h]	further results
COCC12CCC(OC)C34C5CC6(O)C(OC)C(O)C(O)(C5C6OC(=O)c5ccccc5)C(C(OC)C13)C4N(C)C2 (stereo not shown) [Benzoylhypaconine, benzoylhypaconine]	76.7	6.37 ± 1.08	35.6 ± 10.2	6.25	72.1	< 0.767	30 (30, 45) min	106.9	109.6	92.7	104	107	104	105	108	108	105	108	104		
COc1ccc(-c2coc3cc(O[C@@H]4O[C@H](CO)[C@@H](O)[C@H](O)[C@H]4O)ccc3c2=O)cc1O [Calycosin-7-glucoside, calycosin-7-glucoside]							45 (45, 60) min	107.4	108.1	107.3				103	106	96	102	108	94.3	< 0.767	AUC(0-inf) [1]: 79.3 ng·h/mL; half-life [1]: 4.43 ± 0.733 h; Cmax [1]: 52.2 ± 14.8 ng/mL; MRT last [1]: 2.17 h; AUC(0-t) [1]: 77.4 ng·h/mL; remaining at 24 h ([2]; high QC concentration): 103%; remaining at 24 h ([2]; low QC concentration): 104%; remaining at 24 h ([2]; medium QC concentration): 104%
COc1ccc(-c2coc3cc(O)ccc3c2=O)cc1 [Formononetin, formononetin]					15.2		45 (30, 45) min													< 0.767	AUC(0-inf) [1]: 18.7 ng·h/mL; half-life [1]: 15.8 ± 1.62 h; Cmax [1]: 6.79 ± 2.18 ng/mL; MRT last [1]: 12.9 h
O=C(/C=C/c1ccc(O)cc1)c1ccc(O)cc1O [Isoliquiritigenin, isoliquiritigenin]	2750	4.88 ± 0.8	337 ± 103	7.75	2650	3		105.2	106.3	107.0	102	94.6	102	103	102	103	102	103	96.2		Concentration that inhibits NLRP3-dependent IL-1β production ([3]; at both the priming step and the activation step): 1 µM; Concentration that inhibits NLRP3-dependent IL-1β production, converted to mass concentration ([3]; printed as equal to 1 µM): 256 ng/mL; Effect on LPS-induced TLR4/MD2 complex signaling and NF-κB activation [4]: block lipopolysaccharides (LPS)-induced toll-like receptor 4 (TLR4)/MD2 complex signaling and nuclear factor NF-κB activation; Effect on NLRP3-activated ASC oligomerization [5]: inhibit NACHT, LRR and PYD domains-containing protein 3 (NLRP3)-activated apoptosis-associated speck-like protein (ASC) oligomerization
C[C@@]12C[C@@]3(O)O[C@@H](O1)[C@]1(COC(=O)c4ccccc4)[C@H]3C[C@@]12O[C@@H]1O[C@H](CO)[C@@H](O)[C@H](O)[C@H]1O [Paeoniflorin, paeoniflorin]	1230	3.5 ± 0.633	905 ± 226	3.32	1220	< 0.767		105.0	107.8	106.4	103	98.3	105	96.4	102	102	104	98.6	104		IC50 [6]: 420 µM; Concentration that inhibits phosphorylation of ERK, JNK, IKK [7]: 25 ng/mL
COc1cc2c(cc1OC)[C@@H]1Cc3ccc(OC)c(OC)c3CN1CC2 [Tetrahydropalmatine, tetrahydropalmatine]	184	5.17 ± 0.9	42 ± 13.4	8.2	170	3.15	180 (180, 180) min	108.1	89.9	107.4	101	105	98.4	102	103	101	103	104	103		
